Reference: patent US8481521B2, “Methods of treating cell proliferative disorders” (Rigel Pharmaceuticals, Inc., priority 2005, dated 2013)
Entries after “also recorded” stand apart in the source; their conditions may differ.

Legend:
[1] = Solubility of drug and phosphate prodrug; format: physicochemical; settings: water solubility; read-out: Solubility
Description: In contrast, Compound 4 is highly polar at neutral pH. Measured solubility values are consistent with the predicted cLogD values at pH=7.5.

Flt-3 = Flt-3 phosphorylation in MV4-11 tumor lysates (immunoprecipitation, Western blot); format: in vivo, human; settings: 40 mg/kg VII, about two hours after final dose, vs vehicle
Experimental: Panel A is detection of phosphorylated Flt-3 in MV4-11 tumor lysates from mice approximately two hours after the final dose of VII or vehicle using anti-phosphotyrosine antibody on the left and anti-phospho-Flt-3 specific antibody on the right side of the blot. Additionally, a reprobe of the blot for the total Flt-3 levels are shown in Panel B.
Western blot analysis of phosphorylated Flt-3 was carried out as follows.
3. Weigh and normalize in 250 mg/l ml ice-cold RIPA buffer (Santa Cruz Biotechnology, sc-24948) containing protease inhibitor and phosphotase inhibitor cocktail (Sigma, P5726, 1 ml/100 ml lysis buffer).
Immunoprecipitation. • 1. Take 1 mg tumor lysate and add primary antibody 2 ug (Anti-Flt-3 S18, Santa Cruz, #sc-480) adjust volume to 500 ul with lysis buffer. Incubate with gentle rocking for 1 h at 4° C. • 2. Add protein A/G plus-agarose beads (Santa Cruz, SC-2003) 40 ul. Incubate with gentle rocking for 1 h at RT. • 3. Microcentrifuge for 30 second at 4° C. Wash pellet three times with 500 ul of 1× lysis buffer. Keep on ice during washes. • 4. Resuspend the pellet with 30 ul 2× Tris-Glysine SDS loading buffer+5 ul reducing agent 10× (Invitrogen). • 5. Heat the sample to 95-100° C. for 5 minutes. • 6. Store the sample at −80° C.
Western Blot Procedure. • 1. Load 20 ul of the sample on 8% Tris-Glysine gel. • 2. Run in 1× Tris-glysine SDS running buffer. • 3. […]

[2] = test system: phosphorylated histone H3 (phH3); assay: Phosphorylated histone H3 immunohistochemistry of MV4-11 tumor xenografts; format: in vivo, human; settings: vs vehicle treated MV4-11 xenografts
Experimental: Proliferation was assessed ex vivo in formalin fixed tumor sections from three randomly selected mice from this study using immunohistochemical staining of human-specific phosphorylated histone H3 (phH3) as a marker for tumor cell proliferation. Human phH3 expression was reduced in tumor sections in a dose-dependent manner following treatment with VII.

pErk1/2 and pStat5 = assay: Immunohistochemical staining for pErk1/2 and pStat5 in MV4-11 tumor sections; format: in vivo; settings: 40 mg/kg VII, 26 days
Experimental: Tumors were harvested from mice ˜2 hours following final dose of vehicle or 40 mg/kg VII.

[3] = Pharmacokinetics / oral bioavailability in Sprague-Dawley rats; format: in vivo
Experimental: Prodrug Compound 4 was tested for oral bioavailability. For the study, the prodrug was dissolved in various vehicles (e.g. PEG 400 solution and CMC suspension) for intravenous and oral dosing in the rats. […] Following administration of the prodrug and/or drug, plasma samples were obtained and extracted. The plasma concentrations of the prodrug and/or drug were determined by high performance liquid chromatography/tandem mass spectrometry (LC/MS/MS) methods. Pharmacokinetic analyses were performed based on the plasma concentration data. The pharmacokinetic parameters of interest include Clearance (CL), Volume of distribution at steady-state (Vss), terminal half-life (t1/2), and oral bioavailability (% F).
Referring to FIG. 16, PK profiles are shown for IV and PO administration in Spraque-Dawley rats. For IV administration, Compound 4 was dissolved in PEG-400 and administered at a dose of 1 mg/kg.
FIG. 17 summarizes the PK parameters for the study described in FIG. 4.
FIG. 23 illustrates the absorption of prodrug Compound 4 from different vehicles.

[4] = Stability under acidic and neutral conditions; format: physicochemical; settings: 37° C.
[5] = Conversion of prodrug to drug in microsome preparations; format: in vitro ADME, rat
Description: (§1) Although phosphate-containing prodrugs suitable for oral administration are of interest, skilled artisans will appreciate that prodrugs including phosphate-containing progroups R^P can be administered via other routes of administration, as phosphatases are distributed throughout the body. […] Thus, the only requirement is that the particular phosphate-containing progroup R^P selected should be removable under the conditions of intended use.

[6] = Stability of prodrug in rat plasma; format: in vitro ADME
Description: as §1
The presence of Phosphatase activity in rat plasma was confirmed using p-nitrophenyl phosphate—a known substrate for phosphatase.

For `COc1cc(Nc2ncc(F)c(Nc3ccc4c(n3)N(COP(=O)(O)O)C(=O)C(C)(C)O4)n2)cc(OC)c1OC` [Compound 4, N4-(2,2-dimethyl-4-[(dihydrogenphosphonoxy)methyl]-3-oxo-5-pyrido[1,4]oxazin-6-yl)-5-fluoro-N2-(3,4,5-trimethoxyphenyl)-2,4-pyrimidinediamine], the solubility [1] was > 5000 µg/mL, the “Constitutive phosphorylation of Flt-3 in tumors” value (Flt-3) was “reduced” and the “inhibition of phH3 staining” value ([2]; 20 mg/kg VII) was 53%. For the same compound, the “inhibition of phH3 staining” value ([2]; 40 mg/kg VII) was 71%, the “STATS and ERK1/2 phosphorylation in tumor sections” value (pErk1/2 and pStat5) was “reduced” and the “prodrug in plasma after IV administration” value ([3]; 1 mg/kg IV in PEG-400) was “Rapid disappearance”. For the same compound, the “absorption from different vehicles” value ([3]; PEG-400, CMC, powder in hard gelatin capsules) was “absorbed equally well”, the “plasma levels of drug metabolite Compound III after oral prodrug” value ([3]; PO in PEG-400) was “high levels” and the “prodrug present systemically after oral administration” value ([3]; PO in PEG-400) was “no prodrug Compound 4 was present systemically”. The “AUC/dose of drug Compound III exposure” value ([3]; oral Compound III 2.5 mg/kg or Compound 4 4 mg/kg in PEG-400) was “nearly identical”, the “stability under acidic and neutral conditions” value [4] was “stable” and the “conversion to drug Compound III in intestinal and hepatic microsomes” value ([5]; microsomes from a different source) was “metabolize to the active drug Compound III; also recorded: conversion of Compound 4 to Compound III was observed”. For the same compound, the “conversion to drug Compound III in microsomal preparations” value ([5]; preparations obtained from Xenotech) was “failed to convert” and the “stability in rat plasma (hydrolysis to Compound III)” value [6] was “metabolize to the active drug Compound III; also recorded: unstable”.
